Source: patent US20230183188A1, “ENPP1 MODULATORS AND USES THEREOF” (Vir Biotechnology, Inc., priority 2020, published 2023)

Molecular target: T1, recombinant protein containing the human ENPP1 enzymatic domain (Homo sapiens, UniProt P22413)
T1 construct: recombinant protein containing the human ENPP1 enzymatic domain; purchased R&D Systems 6136-EN-010
T1 sequence (P22413 191-591 limits assumed): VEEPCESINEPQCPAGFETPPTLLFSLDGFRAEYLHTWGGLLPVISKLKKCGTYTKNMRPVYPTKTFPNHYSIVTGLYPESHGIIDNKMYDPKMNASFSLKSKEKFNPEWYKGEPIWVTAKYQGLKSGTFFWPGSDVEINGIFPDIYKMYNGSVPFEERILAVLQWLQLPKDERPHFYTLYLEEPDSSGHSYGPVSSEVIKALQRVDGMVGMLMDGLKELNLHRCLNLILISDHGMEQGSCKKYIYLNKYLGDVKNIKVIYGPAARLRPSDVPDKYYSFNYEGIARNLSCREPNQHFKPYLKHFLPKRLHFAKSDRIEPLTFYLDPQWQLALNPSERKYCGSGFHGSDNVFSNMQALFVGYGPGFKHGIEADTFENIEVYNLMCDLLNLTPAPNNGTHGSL
Test: ENPP1 Enzymatic Inhibition Assay (2′3′-cGAMP substrate, AMP-Glo luminescence)
Type: biochemical
Conditions: 1 nM ENPP1, 20 uM 2′3′-cGAMP substrate, 30 minutes at 37° C.
Procedure: The inhibition of ENPP1's phosphodiesterase activity were tested in a purified enzymatic assay using 2′3′-cyclic GAMP as a substrate which allowed for the release of cleaved AMP to be monitored using a luminescent assay.
Putative inhibitors were diluted in assay buffer (50 mM Tris pH 8.0, 250 mM NaCl, 0.5 mM CaCl2, 1 uM ZnCl2, 1% DMSO) and pre-incubated for 15 minutes at 37° C. with recombinant protein containing the human ENPP1 enzymatic domain (R&D Systems cat. #6136-EN-010). The enzymatic reaction was initiated upon addition of the 2′3′-cGAMP substrate. The final reaction concentrations were 1 nM ENPP1 and 20 uM 2′3′-cGAMP substrate in a 25 uL volume. Inhibitor concentrations ranged from 10 uM to 0.2 nM. The reaction was incubated for 30 minutes at 37° C.
After reacting for 30 minutes, the amount of AMP generated from the cleavage of 2′3′-cGAMP was determined using the Promega AMP-Glo method according to the manufacturer's protocol. First, AMP-Glo reagent 1 was added and incubated with the reaction mix for 1 hour at room temperature. Second, AMP Detection solution was added and the mixture was incubated for an additional hour. The luminescence of the mixture was read on a Perkin Elmer Ensight plate reader.
The maximum and minimum levels of ENPP1 activity were established using no inhibitor and no enzyme controls, respectively. The activity observed using ENPP1 inhibitors was quantified as the percent of activity relative to these controls. IC50 values were calculated using GraphPad Prism by fitting a sigmoidal variable slope nonlinear regression model to the data.

IC50 [nM] | SMILES
10 to 100 | COc1ccc2c(Oc3ccc(S(N)(=O)=NCCN)cc3)ccnc2c1 (stereo not shown) [Compound 40, N′-(2-aminoethyl)-4-((7-methoxyquinolin-4-yl)oxy)benzenesulfonimidamide]
< 10 | COc1ccc2c(Oc3ccc(S(N)(=O)=NCc4ccccc4)cc3)ccnc2c1 (stereo not shown) [Compound 25, N′-benzyl-4-((7-methoxyquinolin-4-yl)oxy)benzenesulfonimidamide]
10 to 100 | CCN=S(N)(=O)c1ccc(Oc2ccnc3cc(OC)ccc23)cc1 (stereo not shown) [Compound 22, N′-ethyl-4-((7-methoxyquinolin-4-yl)oxy)benzenesulfonimidamide]
< 10 | COc1ccc2c(Oc3ccc(S(=N)(=O)NC[C@H](O)CO)cc3)ccnc2c1 (single isomer, unassigned) [Compound 46]
< 10 | COc1ccc2c(Oc3ccc(S(N)(=O)=NCC4CC4)cc3)ccnc2c1 (stereo not shown) [Compound 1, N′-(cyclopropylmethyl)-4-((7-methoxyquinolin-4-yl)oxy)benzenesulfonimidamide]
< 10 | COc1ccc2c(Oc3ccc(S(N)(=O)=NCc4nccn4C)cc3)ccnc2c1 (stereo not shown) [Compound 16, 4-((7-methoxyquinolin-4-yl)oxy)-N′-((1-methyl-1H-imidazol-2-yl)methyl)benzenesulfonimidamide]
< 10 | CN=S(N)(=O)c1ccc(Nc2ncnc3cc(OC)ccc23)cc1 (stereo not shown) [Compound 2, 4-((7-methoxyquinazolin-4-yl)amino)-N-methylbenzenesulfonimidamide]
10 to 100 | COc1ccc2c(Nc3ccc(S(=N)(=O)N(C)C)cc3)ncnc2c1 (stereo not shown) [Compound 42, 4-((7-methoxyquinazolin-4-yl)amino)-N,N-dimethylbenzenesulfonimidamide]
10 to 100 | COc1ccc2c(Oc3ccc(S(N)(=O)=NC[C@H]4CCCN4)cc3)ccnc2c1 (stereo partly drawn) [Compound 6, 4-((7-methoxyquinolin-4-yl)oxy)-N′-(((R)-pyrrolidin-2-yl)methyl)benzenesulfonimidamide]
10 to 100 | COc1ccc2c(Oc3ccc(S(N)(=O)=NCC(=O)O)cc3)ccnc2c1 (stereo not shown) [Compound 7]
10 to 100 | COc1ccc2c(Oc3ccc(S(N)(=O)=NCCO)cc3)ccnc2c1 (stereo not shown) [Compound 9, N-(2-hydroxyethyl)-4-((7-methoxyquinolin-4-yl)oxy)benzenesulfonimidamide]
< 10 | COc1ccc2c(Oc3ccc(S(N)(=O)=NCCOc4ccncc4)cc3)ccnc2c1 (stereo not shown) [Compound 14, 4-((7-methoxyquinolin-4-yl)oxy)-N′-(2-(pyridin-4-yloxy)ethyl)benzenesulfonimidamide]
10 to 100 | COc1ccc2c(Oc3ccc(S(N)(=O)=NC[C@@H]4CCCN4)cc3)ccnc2c1 (stereo partly drawn) [Compound 44, 4-((7-methoxyquinolin-4-yl)oxy)-N′-(((S)-pyrrolidin-2-yl)methyl)benzenesulfonimidamide]
10 to 100 | COc1ccc2c(Oc3ccc(S(N)(=O)=NCCc4ccccc4)cc3)ccnc2c1 (stereo not shown) [Compound 19, 4-((7-methoxyquinolin-4-yl)oxy)-N′-phenethylbenzenesulfonimidamide]
< 10 | COc1ccc2c(Oc3ccc(S(N)(=O)=NCCNC(C)=O)cc3)ccnc2c1 (stereo not shown) [Compound 41, N-(2-((amino(4-((7-methoxyquinolin-4-yl)oxy)phenyl)(oxo)-I^6-sulfaneylidene)amino)ethyl)acetamide]
< 10 | COc1ccc2c(Oc3ccc(S(N)(=O)=NCc4ncco4)cc3)ccnc2c1 (stereo not shown) [Compound 15, 4-((7-methoxyquinolin-4-yl)oxy)-N′-(oxazol-2-ylmethyl)benzenesulfonimidamide]
< 10 | COc1ccc2c(Oc3ccc(S(N)(=O)=NCc4ccc(-c5ccncc5)cc4)cc3)ccnc2c1 (stereo not shown) [Compound 35, 4-((7-methoxyquinolin-4-yl)oxy)-N′-(4-(pyridin-4-yl)benzyl)benzenesulfonimidamide]
10 to 100 | COc1ccc2c(Oc3ccc(S(N)(=O)=Nc4ccc(-c5ccncc5)cc4)cc3)ccnc2c1 (stereo not shown) [Compound 38, 4-((7-methoxyquinolin-4-yl)oxy)-N′-(4-(pyridin-4-yl)phenyl)benzenesulfonimidamide]
10 to 100 | CNS(=N)(=O)c1ccc(Oc2ccnc3cc(OC)ccc23)cc1 (stereo not shown) [Compound 31, 4-((7-methoxyquinolin-4-yl)oxy)-N′-methylbenzenesulfonimidamide]

IC50 [nM] | SMILES
< 10 | COc1ccc2c(Oc3ccc(S(N)(=O)=NCC(F)(F)F)cc3)ccnc2c1 (stereo not shown) [Compound 37, 4-((7-methoxyquinolin-4-yl)oxy)-N′-(2,2,2-trifluoroethyl)benzenesulfonimidamide]
< 10 | CCS(=N)(=O)c1ccc(Oc2ccnc3cc(OC)ccc23)cc1 (stereo not shown) [Compound 4, ethyl(imino)(4-((7-methoxyquinolin-4-yl)oxy)phenyl)-λ^6-sulfanone]
10 to 100 | COc1ccc2c(Oc3ccc(S(N)(=O)=NC[C@@H]4CCCN4C(=O)OC(C)(C)C)cc3)ccnc2c1 (stereo partly drawn) [Compound 43, tert-butyl (2S)-2-(((amino(4-((7-methoxyquinolin-4-yl)oxy)phenyl)(oxo)-I^6-sulfaneylidene)amino)methyl) pyrrolidine-1-carboxylate]
< 10 | COc1ccc2c(Oc3ccc(S(=N)(=O)NC[C@@H](O)CO)cc3)ccnc2c1 (single isomer, unassigned) [Compound 45]
< 10 | COc1ccc2c(Oc3ccc(S(N)(=O)=NCCOc4ccccn4)cc3)ccnc2c1 (stereo not shown) [Compound 12, 4-((7-methoxyquinolin-4-yl)oxy)-N′-(2-(pyridin-2-yloxy)ethyl)benzenesulfonimidamide]
> 100 | COc1ccc2c(Oc3ccc(S(=N)(=O)N(C)C)cc3)ccnc2c1 (stereo not shown) [Compound 32, 4-((7-methoxyquinolin-4-yl)oxy)-N, N-dimethylbenzenesulfonimidamide]
> 100 | COc1ccc2c(Oc3ccc(S(=N)(=O)N4CCCC4)cc3)ccnc2c1 (stereo not shown) [Compound 24, 7-methoxy-4-(4-(pyrrolidine-1-sulfonimidoyl)phenoxy)quinoline]
10 to 100 | COc1ccc2c(Oc3ccc(S(N)(=O)=NCc4cccnc4)cc3)ccnc2c1 (stereo not shown) [Compound 27, 4-((7-methoxyquinolin-4-yl)oxy)-N′-(pyridin-3-ylmethyl)benzenesulfonimidamide]
> 100 | CN=S(N)(=O)c1ccc(CNc2ccnc3cc(OC)ccc23)cc1 (stereo not shown) [Compound 3, 4-(((7-methoxyquinolin-4-yl)amino)methyl)-N-methylbenzenesulfonimidamide]
10 to 100 | COc1ccc2c(Oc3ccc(S(=N)(N)=O)cc3)ccnc2c1 (stereo not shown) [Compound 30, 4-((7-methoxyquinolin-4-yl)oxy)benzenesulfonimidamide]
> 100 | COc1ccc2c(Oc3ccc(S4(=O)=NC(=O)CN4)cc3)ccnc2c1 (stereo not shown) [Compound 8, 1-(4-((7-methoxyquinolin-4-yl)oxy)phenyl)-4,5-dihydro-3H-1λ^6,2,5-thiadiazol-3-one 1-oxide]
< 10 | COc1ccc2c(Oc3ccc(S(N)(=O)=NCC(C)(C)O)cc3)ccnc2c1 (stereo not shown) [Compound 11, N′-(2-hydroxy-2-methylpropyl)-4-((7-methoxyquinolin-4-yl)oxy)benzenesulfonimidamide]
10 to 100 | COc1ccc2c(Oc3ccc(S(=N)(=O)N4CCN(C)CC4)cc3)ccnc2c1 (stereo not shown) [Compound 29, 7-methoxy-4-(4-(4-methylpiperazine-1-sulfonimidoyl)phenoxy)quinoline]
< 10 | COc1ccc2c(Oc3ccc(S(N)(=O)=NCCOc4cccnc4)cc3)ccnc2c1 (stereo not shown) [Compound 13, 4-((7-methoxyquinolin-4-yl)oxy)-N′-(2-(pyridin-3-yloxy)ethyl)benzenesulfonimidamide]
< 10 | COc1ccc2c(Oc3ccc(S(N)(=O)=NCC(C)O)cc3)ccnc2c1 (single isomer, unassigned) [Compound 10, N′-(2-hydroxypropyl)-4-((7-methoxyquinolin-4-yl)oxy)benzenesulfonimidamide]
10 to 100 | COc1ccc2c(Oc3ccc(S(N)(=O)=NCc4ccncc4)cc3)ccnc2c1 (stereo not shown) [Compound 28, 4-((7-methoxyquinolin-4-yl)oxy)-N′-(pyridin-4-ylmethyl)benzenesulfon imidamide]
> 100 | COc1ccc2c(Oc3ccc(S(=N)(=O)N4CCOCC4)cc3)ccnc2c1 (stereo not shown) [Compound 18, 4-(4-((7-methoxyquinolin-4-yl)oxy)phenylsulfonimidoyl)morpholine]
10 to 100 | COc1ccc2c(Oc3ccc(S(N)(=O)=NC4CC4)cc3)ccnc2c1 (stereo not shown) [Compound 21, N′-cyclopropyl-4-((7-methoxyquinolin-4-yl)oxy)benzenesulfonimidamide]
